According to patent US5856535A, “Aminosterol ester compounds” (priority 1996, dated 1999):
Converted amounts (≈) assume the structure as drawn.

How the values were obtained:
[1] = tested on: human microvascular cells; experiment: endothelial cell cord formation assay (human microvascular cells, VEGF and bFGF, collagen matrix); format: cell-based; conditions: for inhibition of angiogenesis (in words): higher doses
Text: Endothelial cells have the capacity in vitro to form tubular aggregates resembling capillaries in various early stages of formation. This conversion occurs under relatively specific conditions, in which essential growth factors along with an effective substratum are provided. It has been shown that both the interaction of growth factors with the endothelial cell and its attachment to a substratum activate the NHE. The activation of this exchanger is believed to be required for subsequent morphologic transformation of the endothelial cell into a multicellular tubular structure.
To assess the effect of compounds on the cord-like structures formed by human microvascular cells when plated in the presence of VEGF (Vascular Endothelial Growth Factor) and basic fibroblast growth factor on a collagen matrix, a standard cord formation assay was performed using the method described by Goto, et al., "Synergistic Effects of Vascular Endothelial Growth Factor and Basic Fibroblast Growth Factor on the Proliferation and Cord Formation of Bovine Capillary Endothelial Cells Within Collagen Gels," Laboratory Investigation, Vol. 69, No. 5, 1993, pp. 508-517. This article is entirely incorporated herein by reference.

[2] = tested on: chick embryo vitelline capillaries; experiment: chick embryo vitelline capillary regression assay; format: in vivo; parameters: key to Chick embryo vitelline capillary regression: +: Vascular reactivity; 0: No vascular reactivity; +/-: Equivocal reactivity
Procedure: Using the chick embryo vitelline capillaries assay, various aminosterol compounds were tested for their ability to induce capillary regression. Each compound was applied in 0.1 ml of 15% Ficol 400 and PBS onto the embryo, and vascular regression was assessed after 60 minutes. These tests were conducted by the chorioallantoic membrane anti-angiogenesis assay by applying the material to be assayed to 3 day old fertilized chick embryos in the manner described by Wilks et al., "Inhibition of Angiogenesis With Combination Angiostatic Steroids and Suramin," Radiation Biology, Vol. 60, Nos. 1/2, 1991, pp. 73-77, which article is entirely incorporated herein by reference.
The 3-day chick embryo consists of an embryonic disc from which numerous vessels emerge and return, forming a "figure 8"-shaped structure--the embryo in the center with vascular loops extending outward over both poles. […] Following a lag period of around 15 minutes, the constriction of continuity between capillary and secondary vessels, generally on the "venous" side, was observed. Continued pulsatile blood flow progressed, resulting in a "swelling" of the blind tube, followed by a pinching off of the remaining connection and formation of an enclosed vascular sac resembling a "blood island." This process progressed until only the largest vessels remained intact.

[3] = tested on: Xenopus laevis Stages 59-60 tadpoles; experiment: tadpole assay; format: in vivo; conditions: 10 μg/ml where stated
[4] = tested on: S. aureus; experiment: antibiotic activity, S. aureus; format: cell-based; conditions: Staphylococcus aureus
[5] = tested on: E. Coli; experiment: antibiotic activity, E. Coli; format: cell-based; conditions: Escherichia coli
[6] = tested on: P. aerug; experiment: antibiotic activity, P. aerug; format: cell-based
[7] = tested on: C. albicans; experiment: antibiotic activity, C. albicans; format: cell-based; conditions: Candida albicans
[8] = inhibition of MSI-1436 binding; conditions: 3H-MSI-1436 at 20 μg/mL
[9] = tested on: splenocytes; experiment: mitogen proliferation assay (splenocytes of treated mice, Con A); format: in vivo; conditions: for Rel. potency to MSI-1436, Mitogen Proliferation Assay: 10 mg/kg iv
Procedure: For the attached Tables, the mitogen proliferation assay was performed by treating mice (male or female) with various amounts of the aminosterol test compounds. Some time later (typically between 2 hours and 14 days), the mice are sacrificed and their spleens removed. Splenocytes are harvested and cultured in the presence of between 1-10 μg/ml of Con A (Sigma) for 48 hours. See James Morgan, "Monoclonal Antibody Production," Modern Methods in Pharmacology, pp. 29-67, eds., Spector and Back, 1988. This excerpt is entirely incorporated herein by reference. Cell proliferation is monitored either by direct cell counting or by measurement of the incorporation of radioactive thymidine.

[10] = tested on: red blood cells; experiment: swelling of red blood cells; format: cell-based
[11] = tested on: melanoma cells; experiment: MTT assay for cell number; format: cell-based; conditions: read-out: MTT assay IC50
Procedure: In Table V, several aminosterol esters show efficacy in killing melanoma cells in the MTT assay.
The MTT assay for cell number is performed as follows. Cells are counted on a hemocytometer and diluted to a concentration of approx. 10,000 cells/well (55,000 cells/ml×0.18 ml). Cells are then plated in a 96 well microtiter plate and allowed to attach overnight. The next day, compounds are serially diluted from 1000 to 15.6 μg/ml and run in duplicate. 20 μl of each dilution are transferred to the pre-seeded microtiter plates. The final concentrations are 100 to 1.56 μg/ml. The plates are then incubated for 48 hours at 37° C. in 5% CO2. After 48 hours, MTT solution is added. The plate is re-incubated for 4 hours. Readings are done by removing all but 30 μl of media and MTT solution and dissolving the formazan crystals with DMSO. The formazan is dissolved by mixing on a rotating plate at low speed for about 30 minutes. Absorbance of converted dye is measured at a wavelength of 560 nm with background subtraction at 630 nm. The percent survival is determined by a comparison between the mean absorbance of the duplicate test lanes and the growth control.

CO[C@@H]1[C@H](OC(=O)/C=C/C=C/C=C/C=C/C(=O)O)CC[C@]2(CO2)[C@H]1[C@@]1(C)O[C@@H]1CC=C(C)C [Fumagillin, reference compound]
minimal effective concentration ([1]; Homo sapiens, Endothelial cell, text to the table, read-out: concentration at which cord formation is inhibited): 10 µg/mL

COC(=O)CC[C@@H](C)[C@H]1CC[C@H]2[C@@H]3[C@H](O)C[C@@H]4C[C@H](NCCN)CC[C@]4(C)[C@H]3CC[C@]12C [Compound 410]
inhibition of angiogenesis (in words) [1]: inhibit angiogenesis at higher doses | effect on vitelline capillaries (in words) ([2]; 3- to 5-day chick embryo): substantial activity | effect on embryonic epithelium / epithelial shedding (in words) [3]: functionally similar to compound 1437

CC(CC[C@@H](OS(=O)(=O)O)C(C)C)[C@H]1CCC2C3C(CC[C@@]21C)[C@@]1(C)CC[C@H](NCCCNCCCCNCCCN)C[C@@H]1C[C@H]3O (some centres unmarked) [drawing 51]
MIC [4]: 1 µg/mL (≈ 1.46 µM) | MIC [5]: 1 to 2 µg/mL (≈ 1.46 to 2.92 µM) | MIC [6]: 4 µg/mL (≈ 5.84 µM) | MIC [7]: 8 µg/mL (≈ 11.7 µM)

COC(=O)CCC(C)[C@H]1CCC2C3CC[C@H]4C[C@H](NCCCNCCCCNCCCN)CC[C@]4(C)C3CC[C@@]21C (some centres unmarked) [drawing 55]
MIC [4]: 4 µg/mL (≈ 6.96 µM)

COC(=O)CC[C@@H](C)[C@H]1CC[C@H]2[C@@H]3C[C@@H](O)[C@H]4C[C@@H](NCCN)CC[C@]4(C)[C@H]3CC[C@]12C [Compound 432]
effect on embryonic epithelium / epithelial shedding (in words) [3]: functionally similar to compound 1437

CC(CCC(=O)O)[C@H]1CCC2C3C[C@@H](O)[C@H]4C[C@@H](NCCCNCCCCNCCCN)CC[C@]4(C)C3CC[C@@]21C (some centres unmarked)
% Inhib. of MSI-1436 Binding @ 100 μg/mL [8]: -69% | Rel. potency to MSI-1436, Mitogen Proliferation Assay [9]: 0.22

CC(CCC(CO)(OS(=O)(=O)O)C(C)C)[C@H]1CCC2C3C(CC[C@@]21C)[C@@]1(C)CC[C@H](NCCCNCCCCN)C[C@@H]1C[C@H]3O (some centres unmarked) [drawing 52]
MIC [4]: 2 µg/mL (≈ 3.04 µM) | MIC [5]: 4 µg/mL (≈ 6.08 µM) | MIC [6]: 16 µg/mL (≈ 24.3 µM) | MIC [7]: 16 µg/mL (≈ 24.3 µM)

COC(=O)CC[C@@H](C)[C@H]1CC[C@H]2[C@@H]3[C@H](O)C[C@@H]4C[C@@H](NCCCNCCCCNCCCN)CC[C@]4(C)[C@H]3CC[C@]12C [Compound 411]
inhibition of angiogenesis (in words) [1]: inhibit angiogenesis at higher doses | Chick embryo vitelline capillary regression ([2]; 1 μg applied, 60 minutes): +/-

COC(=O)CCC(C)[C@H]1CCC2C3C(CC[C@@]21C)[C@@]1(C)CC[C@@H](NCCCNCCCCN)C[C@H]1C[C@H]3O (some centres unmarked) [drawing 38]
MIC [4]: 4 µg/mL (≈ 7.49 µM) | MIC [5]: 32 to 64 µg/mL (≈ 59.9 to 120 µM) | MIC [6]: 64 µg/mL (≈ 120 µM) | MIC [7]: 64 µg/mL (≈ 120 µM)

C=C(C)C(=O)CC[C@@H](C)[C@H]1CC[C@H]2[C@@H]3[C@H](O)C[C@H]4C[C@@H](NCCCNCCCCN)CC[C@]4(C)[C@H]3CC[C@]12C [Compound 1361, reference compound]
induction of swelling of red blood cells (in words) [10]: induce swelling of red blood cells

COC(=O)CC[C@@H](C)[C@H]1CC[C@H]2[C@@H]3[C@H](O)C[C@@H]4C[C@@H](NCCN)CC[C@]4(C)[C@H]3CC[C@]12C [Compound 409]
effect on embryonic epithelium / epithelial shedding (in words) [3]: functionally similar to compound 1437

COC(=O)CC[C@@H](C)[C@H]1CC[C@H]2[C@@H]3C[C@@H](O)[C@H]4C[C@@H](NCCCN5CCN(CCCN)CC5)CC[C@]4(C)[C@H]3CC[C@]12C [Compound 469]
IC50 [11]: 2 µg/mL (≈ 3.4 µM) | % Inhib. of MSI-1436 Binding @ 100 μg/mL [8]: 110% | Rel. potency to MSI-1436, Mitogen Proliferation Assay [9]: 1.6 | potency in the mitogen proliferation assay (in words) ([9]; mouse, in vivo): higher potency in the mitogen proliferation assay than compound 1436

COC(=O)CC[C@@H](C)[C@H]1CC[C@H]2[C@@H]3C[C@@H](O)[C@H]4C[C@@H](NCCCNCCCCN)CC[C@]4(C)[C@H]3CC[C@]12C [Compound 566]
induction of swelling of red blood cells (in words) [10]: induce swelling of red blood cells
